US9567302B2, “Carbamate compounds and of making and using same” (Abide Therapeutics, Inc., priority 2012, dated 2017)

Key:
hMAGL = target: T1, hMAGL (Homo sapiens, UniProt Q99685); assay: Competitive ABPP with human MAGL recombinantly expressed in HEK293T cells; format: biochemical; conditions: Table 1; hMAGL-HEK293T cell lysates
T1 construct: expressed in transfected cells; host or cells: HEK293T
T1 sequence (Q99685 1-303): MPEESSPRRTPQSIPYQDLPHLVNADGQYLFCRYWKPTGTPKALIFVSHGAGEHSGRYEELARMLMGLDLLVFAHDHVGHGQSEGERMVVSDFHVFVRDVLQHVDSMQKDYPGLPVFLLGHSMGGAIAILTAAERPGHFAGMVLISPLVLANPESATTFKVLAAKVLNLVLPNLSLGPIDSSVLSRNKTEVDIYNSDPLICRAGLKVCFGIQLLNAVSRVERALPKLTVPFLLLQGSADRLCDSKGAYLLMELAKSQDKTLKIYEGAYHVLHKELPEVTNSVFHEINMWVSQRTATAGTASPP
Method: (§1) Proteomes (mouse brain membrane fraction or cell lysates) (50 μL, 1.0 mg/ml total protein concentration) were preincubated with varying concentrations of inhibitors at 37° C. After 30 min, FP-Rh (1.0 μL, 50 μM in DMSO) was added and the mixture was incubated for another 30 min at 37° C. Reactions were quenched with SDS loading buffer (50 μL—4×) and run on SDS-PAGE.
Recombinant Expression of Human MAGL in HEK293T Cells.
Cell lysates were diluted with mock proteomes for use in competitive ABPP experiments.

MAGL [1] = target: T2, MAGL (Mus musculus, UniProt O35678); assay: In vitro competitive activity-based protein profiling (FP-Rh), mouse MAGL; format: biochemical; design: from tissue; host or cells: mouse brain membrane fraction; conditions: 30 min preincubation at 37° C.
T2 sequence (O35678 1-303): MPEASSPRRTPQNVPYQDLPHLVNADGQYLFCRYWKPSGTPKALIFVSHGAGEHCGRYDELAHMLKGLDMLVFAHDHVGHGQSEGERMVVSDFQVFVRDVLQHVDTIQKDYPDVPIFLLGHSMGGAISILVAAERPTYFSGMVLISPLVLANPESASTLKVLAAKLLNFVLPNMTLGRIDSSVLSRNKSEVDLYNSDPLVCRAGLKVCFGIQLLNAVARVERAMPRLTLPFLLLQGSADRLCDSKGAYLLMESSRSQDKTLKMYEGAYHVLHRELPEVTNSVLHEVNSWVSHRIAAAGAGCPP
Method: (§2) In Vitro Competitive Activity-Based Protein Profiling.
as §1

FAAH = target: T3, FAAH (Mus musculus, UniProt O08914); assay: In vitro competitive activity-based protein profiling (FP-Rh), mouse FAAH; format: biochemical; design: from tissue; host or cells: mouse brain membrane fraction; conditions: 30 min preincubation at 37° C.
T3 sequence (O08914 1-579): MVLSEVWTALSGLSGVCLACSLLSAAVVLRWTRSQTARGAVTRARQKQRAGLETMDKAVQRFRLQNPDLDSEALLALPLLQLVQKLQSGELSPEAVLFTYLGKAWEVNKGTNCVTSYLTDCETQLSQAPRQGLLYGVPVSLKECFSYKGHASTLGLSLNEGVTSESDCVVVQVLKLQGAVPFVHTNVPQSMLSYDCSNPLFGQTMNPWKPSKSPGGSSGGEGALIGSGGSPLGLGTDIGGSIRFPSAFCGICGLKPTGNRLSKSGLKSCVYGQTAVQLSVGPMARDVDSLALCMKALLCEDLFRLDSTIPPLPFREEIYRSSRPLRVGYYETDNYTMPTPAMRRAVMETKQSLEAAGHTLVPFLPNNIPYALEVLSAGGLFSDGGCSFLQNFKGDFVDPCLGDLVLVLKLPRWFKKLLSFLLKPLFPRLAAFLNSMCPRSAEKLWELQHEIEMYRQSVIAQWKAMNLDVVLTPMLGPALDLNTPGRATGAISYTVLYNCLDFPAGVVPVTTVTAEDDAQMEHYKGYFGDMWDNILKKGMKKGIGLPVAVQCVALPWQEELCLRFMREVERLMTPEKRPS
Method: as §2, §1

ABHD6 = target: T4, ABHD6 (Mus musculus, UniProt Q8R2Y0); assay: In vitro competitive activity-based protein profiling (FP-Rh), mouse ABHD6; format: biochemical; design: from tissue; host or cells: mouse brain membrane fraction; conditions: 30 min preincubation at 37° C.
T4 sequence (Q8R2Y0 1-336): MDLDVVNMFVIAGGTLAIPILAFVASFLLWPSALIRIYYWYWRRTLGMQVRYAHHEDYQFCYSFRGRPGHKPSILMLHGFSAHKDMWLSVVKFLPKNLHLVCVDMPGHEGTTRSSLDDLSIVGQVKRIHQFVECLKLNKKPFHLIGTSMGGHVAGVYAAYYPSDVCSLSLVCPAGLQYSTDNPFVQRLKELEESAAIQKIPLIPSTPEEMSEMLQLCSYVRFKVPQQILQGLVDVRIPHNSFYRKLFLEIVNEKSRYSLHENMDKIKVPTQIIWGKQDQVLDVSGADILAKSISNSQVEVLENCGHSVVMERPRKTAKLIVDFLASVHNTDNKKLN
Method: as §2, §1

MAGL [2] = target: T2, MAGL; assay: Mouse brain MAGL inhibition in proteomes from inhibitor treated mice (oral gavage); format: in vivo; design: from tissue; host or cells: mouse brain membrane fraction; conditions: p.o., C57Bl/6J mice, brain proteome 4 h following administration
Method: as §1
Preparation of Mouse Brain Proteomes from Inhibitor Treated Mice.
Inhibitors were administered to wild-type C57B1/6J by oral gavage in a vehicle of polyethylene glycol.

Structure (SMILES) | IC50 (hMAGL) [nM] | IC50 (MAGL [1]; Table 1, mouse proteome) [nM] | IC50 (FAAH; Table 1, mouse proteome) [nM] | IC50 (ABHD6; Table 1, mouse proteome) [nM] | inhibition at 20 mg/kg (MAGL [2]) [%] | IC50 (MAGL [1]; Table 2, mouse proteome) [nM] | IC50 (FAAH; Table 2, mouse proteome) [nM] | IC50 (ABHD6; Table 2, mouse proteome) [nM] | inhibition at 5 mg/kg (MAGL [2]) [%]
O=C(ON1C(=O)CCC1=O)N1CCC(C(O)(c2ccc3c(c2)OCO3)c2ccc3c(c2)OCO3)CC1 [Example 1, 2,5-Dioxopyrrolidin-1-yl 4-(bis(benzo[d][1,3]dioxol-5 yl)(hydroxy)methyl)piperidine-1-carboxylate] | < 100 | < 100 | > 10000 | 100 to 1000 | 75 | – | – | – | –
O=C(ON1C(=O)CCC1=O)N1CCN(C(c2ccc(Br)cc2)c2ccc(Br)cc2)CC1 [Example 3, 2,5-Dioxopyrrolidin-1-yl 4-[bis(4-bromophenyl)methyl]piperazine-1-carboxylate] | < 100 | < 100 | > 10000 | 100 to 1000 | > 95 | – | – | – | –
COc1ccc(N2CCN(C(=O)ON3C(=O)CCC3=O)CC2)cc1 [Example 5, 2,5-Dioxopyrrolidin-1-yl 4-(4-methoxyphenyl)piperazine-1-carboxylate] | 1000 to 10000 | 1000 to 10000 | > 10000 | 1000 to 10000 | – | – | – | – | –
O=C(ON1C(=O)CCC1=O)N1CCN(Cc2cccc(Oc3ccccc3)c2)CC1 [Example 7, 2,5-Dioxopyrrolidin-1-yl 4-[(3-phenoxyphenyl)methyl]piperazine-1-carboxylate] | < 100 | < 100 | 1000 to 10000 | < 100 | – | – | – | – | –
O=C(ON1C(=O)CCC1=O)N1CCC(CCc2ccc(Cl)cc2)CC1 [Example 8, 2,5-Dioxopyrrolidin-1-yl 4-[2-(4-chlorophenyl)ethyl]piperidine-1-carboxylate] | < 100 | < 100 | 100 to 1000 | < 100 | – | – | – | – | –
O=C(ON1C(=O)CCC1=O)N1CCN(Cc2ccccc2Oc2ccccc2)CC1 [Example 35, 2,5-Dioxopyrrolidin-1-yl 4-[(2-phenoxyphenyl)methyl]piperazine-1-carboxylate] | < 100 | < 100 | 1000 to 10000 | < 100 | – | – | – | – | –
O=C(CN1CCN(C(=O)ON2C(=O)CCC2=O)CC1)Nc1cc(C(F)(F)F)ccc1Cl [Example 36, 2,5-Dioxopyrrolidin-1-yl 4-(2-((2-chloro-5-(trifluoromethyl)phenyl)amino)-2-oxoethyl)piperazine-1-carboxylate] | < 100 | < 100 | 1000 to 10000 | 1000 to 10000 | – | – | – | – | –
O=C(ON1C(=O)CCC1=O)N1CCN(Cc2ccc(Br)cc2Oc2ccccc2)CC1 [Example 37, 2,5-Dioxopyrrolidin-1-yl 4-[(4-bromo-2-phenoxyphenyl)methyl]piperazine-1-carboxylate] | < 100 | < 100 | 1000 to 10000 | 100 to 1000 | – | – | – | – | –
CC1CC(=O)N(OC(=O)N2CCN(C(c3ccc(Cl)cc3)c3ccc(Cl)cc3)CC2)C1=O (centres unmarked) [Example 41, 3-Methyl-2,5-dioxopyrrolidin-1-yl 4-(bis(4-chlorophenyl)methyl)piperazine-1-carboxylate] | – | < 100 | > 10000 | 100 to 1000 | > 95 | – | – | – | –
O=C(ON1C(=O)CNC1=O)N1CCN(C(c2ccc(Cl)cc2)c2ccc(Cl)cc2)CC1 [Example 46, 2,5-Dioxoimidazolidin-1-yl 4-(bis(4-chlorophenyl)methyl)piperazine-1-carboxylate] | – | < 100 | > 10000 | 100 to 1000 | > 95 | – | – | – | –
O=C(ON1C(=O)CCC1=O)N1CCN(Cc2ccc(C(F)(F)F)cc2N2CCCC2)CC1 [Example 105, 2,5-Dioxopyrrolidin-1-yl 4-{[2-(pyrrolidin-1-yl)-4-(trifluoromethyl)phenyl]methyl}piperazine-1-carboxylate] | – | – | – | – | – | < 100 | > 10000 | 1000 to 10000 | 75
Cc1c(CN2CCN(C(=O)ON3C(=O)CCC3=O)CC2)cccc1N1CCCCC1 [Example 122, 2,5-Dioxopyrrolidin-1-yl 4-(2-methyl-3-(piperidin-1-yl)benzyl)piperazine-1-carboxylate] | – | – | – | – | – | < 100 | > 10000 | 100 to 1000 | 100
